# Laboratory results reported in PubChem BioAssay AID489032 (Sanford-Burnham Center for Chemical Genomics, 2010).
# Activity calls are given as the source filed them. No rule for the calls is given here.
# Test system: UPR adaptive arm reporter cells, luciferase luminescence
# Experiment: activators of adaptive UPR signalling, dose response, cell-based, luciferase luminescence (AID 489032)
row,Compound,EC50
1,Cc1ccc(Cn2c(SCC(=O)Nc3cc(C)on3)nc3ccccc3c2=O)cc1,> 80 µM (inactive)
2,Cc1ccc(-c2nn(CC(=O)NCc3cc(-c4nn(C)c(=O)c5ccccc45)ccc3C)c(=O)c3ccccc23)cc1,> 80 µM (inactive)
3,Cc1cc(NC(=O)CSc2ccc(-c3nc4cc(C)c(C)cc4[nH]3)cn2)no1,> 80 µM (inactive)
4,Cc1ccc(Cn2c(=O)n(-c3ccccc3)c(=O)c3ccc(C(=O)NCc4ccco4)cc32)cc1,> 80 µM (inactive)
5,COc1cc([C@H]2c3[nH]c4ccccc4c3C[C@H]3C(=O)N4[C@@H](c5cc(OC)c(OC)c(OC)c5)c5[nH]c6ccccc6c5C[C@H]4C(=O)N23)cc(OC)c1OC,12.1 µM
6,COC(=O)c1c(NC(=O)c2nc3ccccc3s2)sc2c1CC(C)(C)NC2(C)C,> 80 µM (inactive)
7,CC(C)Cn1c2c(c(=O)[nH]c1=O)C(C(F)(F)F)(C(F)(F)F)N=C(CCC1CCCCC1)N2,> 80 µM (inactive)
8,CCOC(=O)c1nnc(-c2ccccc2)nc1Sc1c(Cl)cccc1Cl,> 80 µM (inactive)
9,CCOC(=O)c1sc(NC(=S)NC(=O)c2ccccc2)c(C(=O)OCC)c1C,> 80 µM (inactive)
10,Cn1c(-c2ccccc2)c(/C=N/NC(=O)c2ccc(O)cc2)c2ccccc21,> 80 µM (inactive)
11,Cn1c(/C=C/c2ccc(Cl)cc2Cl)c([N+](=O)[O-])c(=O)n(C)c1=O,> 80 µM (inactive)
12,Cc1ccc(NC(=O)Cn2c(/C=C/c3ccccc3)nc3ccccc32)cc1C,> 80 µM (inactive)
13,CCCCNc1c(-c2ccc(SC(C)CC)cc2)nc2cnccn12 (stereo not drawn),> 80 µM (inactive)
14,CCCNC(=O)c1c(N)n(-c2ccc3c(c2)OCO3)c2nc3ccccc3nc12,> 80 µM (inactive)
15,O=c1cc2oc3cc(O)c(O)cc3c(-c3ccccc3[N+](=O)[O-])c-2cc1O,> 80 µM (inactive)
16,Cc1ccc(C(=O)N2N=C(c3ccc(Br)cc3)CC2c2ccccc2O)cc1 (stereo not drawn),> 80 µM (inactive)
17,Cc1ccc(Cl)cc1N1CCN(Cc2nc3c(c(=O)[nH]c(=O)n3C)n2CCc2ccccc2)CC1,> 80 µM (inactive)
18,COc1ccc(C2c3ccc4ccccc4c3Oc3ncn(CCCN(C)C)c(=N)c32)cc1 (stereo not drawn),> 80 µM (inactive)
19,CN(C)CCCN(C(=O)c1ccc(S(=O)(=O)N2CCc3ccccc3C2)cc1)c1nc2ccc(F)cc2s1,> 80 µM (inactive)
20,CCc1sc2nc(SCC(=O)Nc3cc(C)on3)n(-c3cccc(OC)c3)c(=O)c2c1C,> 80 µM (inactive)
21,O=CC1=C(c2ccccc2)Oc2ccccc2O1,> 80 µM (inactive)
22,Cc1ccc(Cc2cnc(NC(=O)/C(C#N)=C/c3ccc(-c4cccc([N+](=O)[O-])c4)o3)s2)cc1,18.1 µM

row,Compound,EC50
1,Cc1cnc(NC(=O)c2cc(S(=O)(=O)N(C)C)ccc2N2CCCC2)s1,6.6 µM
2,Cc1cnc(NC(=O)c2cc3c(C)nn(Cc4ccccc4Cl)c3s2)s1,> 80 µM (inactive)
3,CC1CCCN(c2ccc(C(=O)NCc3cccs3)cn2)C1 (stereo not drawn),> 80 µM (inactive)
4,CN(C)S(=O)(=O)c1ccc(N2CCCC2)c(C(=O)Nc2nccs2)c1,50 µM (inactive)
5,COc1cc([C@@H]2c3cc4c(cc3[C@@H](O)[C@H]3COC(=O)[C@H]23)OCO4)cc(OC)c1O[Si](C)(C)C(C)(C)C,> 80 µM (inactive)
6,O=[N+]([O-])c1cc(-c2ccc(/C=N/c3nc4ccccn4c3-c3ccco3)o2)ccc1Cl,> 80 µM (inactive)
7,Cc1ccc(-n2nc3c(N4CCC(C(=O)NCCc5cccs5)CC4)nnc(C)c3c2C)cc1,> 80 µM (inactive)
8,CCC(C)(C)C1CCC2(CC1)NC(=O)N(CC(=O)N1CCN(S(=O)(=O)c3cc(C)ccc3C)CC1)C2=O (stereo not drawn),27.2 µM (inactive)
9,CC1CCN(Cc2c(C(=O)N/N=C/c3ccc(C(F)(F)F)cc3)nnn2-c2nonc2N)CC1,> 80 µM (inactive)
10,Cc1ccc2c(n1)sc1c(-c3ccc(Br)cc3)c(C#N)c(N)nc12,> 80 µM (inactive)
11,O=C(/C(=N/N=C/c1ccc(O)c(O)c1)c1ccccc1)c1ccccc1,> 80 µM (inactive)
12,O=c1[nH]c(O)c(/C=C2/C=CC(c3cc(Cl)ccc3Cl)=N2)c(=O)[nH]1,9.68 µM
13,O=C(COc1ccc(/C=N/NC(=O)c2cc3ccccc3o2)cc1Br)Nc1ccccc1,> 80 µM (inactive)
14,CCOC(=O)c1cc(-c2ccccc2)sc1NC(=O)c1ccc(OC)cc1,> 80 µM (inactive)
15,CCCCCCCCCCOC(=O)Cn1c(COc2ccc(Cl)cc2)[n+](C)c2ccccc21,> 80 µM (inactive)
16,COc1ccc(C(=O)Nc2cccc(/C=C/c3nc4ccccc4c(=O)[nH]3)c2)cc1,> 80 µM (inactive)
17,CCOC(=O)c1c(NC(=O)CNC2CCCc3ccccc32)sc(C(N)=O)c1C (stereo not drawn),> 80 µM (inactive)
18,CCOC(=O)c1c(NC(=O)/C=C/C(=O)O)sc(C)c1-c1ccc(C(C)(C)C)cc1,25.6 µM (inactive)
19,COC(=O)c1cc([N+](=O)[O-])c(-n2ccnc2)c([N+](=O)[O-])c1,> 80 µM (inactive)
20,COc1cc([N+](=O)[O-])cc(/C=N/NC(=O)c2ccc(NC(=O)c3ccc(C)cc3)cc2)c1O,> 80 µM (inactive)
21,O=C(Nc1ccc(-c2nc3cc(NC(=O)c4cccs4)ccc3o2)cc1)c1cccs1,4.31 µM
22,Cc1cccc2c1Sc1ccc(Cl)cc1CC2N1CCNCC1 (stereo not drawn),> 80 µM (inactive)

row,Compound,EC50
1,O=C(NCc1ccccc1Br)c1cccc2c1C(=O)c1ccc(-c3ccc(OC(F)(F)F)cc3)cc1S2(=O)=O,19.2 µM
2,CN(/N=C\c1ccc(O)c(O)c1)c1nc(-c2ccccc2)cc(-c2ccccc2)n1,8.69 µM
3,C[C@H]1[C@H](C)CC[C@]2(C(=O)O)CC[C@]3(C)C(=CC[C@@H]4[C@@]5(C)C[C@@H](O)[C@H](O)C(C)(C)[C@@H]5CC[C@]43C)[C@H]12,> 80 µM (inactive)
4,COc1ccc(-c2csc(C3=C(O)CN(Cc4ccc(Cl)cc4)C3=N)n2)cc1OC,> 80 µM (inactive)
5,O=C1NC(=O)N(Cc2ccc(F)cc2)C(=O)/C1=C/c1cccs1,> 80 µM (inactive)
6,Cc1ccc(C(=O)Cn2c(C(=O)/C=C/c3ccccc3)nc3ccccc32)cc1,44.8 µM (inactive)
7,Cc1c(C(=O)Nc2nccs2)oc2ccc(Br)cc12,> 80 µM (inactive)
8,Cc1cccnc1Nc1nc(-c2ccc(O)c(O)c2)cs1,> 80 µM (inactive)
9,Cc1ccc2c(c1)C(c1ccc([N+](=O)[O-])cc1)=NNC(c1ccc(Br)cc1)=N2,> 80 µM (inactive)
10,COc1ccc(C(=O)O/N=C/c2c(C(F)(F)F)nn(C)c2SCc2ccccc2Cl)cc1,> 80 µM (inactive)
11,Cc1ccc(Nc2nc3ccc(Cl)cc3n3cnnc23)cc1F,> 80 µM (inactive)
12,COc1cc(/C=C(\C#N)c2nc3ccccc3[nH]2)cc(Br)c1OCc1ccc(F)cc1,> 80 µM (inactive)
13,C=CCN(CC=C)S(=O)(=O)c1ccc(C(=O)Nc2nc3c(s2)CCc2ccccc2-3)cc1,39.9 µM (inactive)
14,O=C1c2cccc3cc(Br)cc(c23)C(=O)N1Nc1ccc(Br)cc1,> 80 µM (inactive)
15,CC1=CC(C)(C)N2C(=O)C(=O)c3cc(OC(=O)c4ccco4)cc1c32,53.1 µM (inactive)
16,Cc1ccc(N=Cc2c(O)n(-c3ccc4c(c3)OCO4)c(=O)c3ccccc23)cc1,> 80 µM (inactive)
17,CCCC[C@@H](C)C[C@@H](C)C(=O)N(C)[C@@H](CC(C)C)C(=O)N[C@H](C(=O)N(C)[C@H](C(=O)N1C[C@@H](O)C[C@H]1C(=O)N1C(=O)C=C[C@@H]1C)C(C)C)C(C)OC(C)=O (stereo partly drawn),13.4 µM
18,Fc1ccc(Nc2nc(NCc3ccco3)c3ccccc3n2)cc1,> 80 µM (inactive)
19,Cc1ccc(C(=O)C(C(=O)/C=C/c2ccccc2)=C2SCCCS2)cc1,> 80 µM (inactive)
20,Cc1ccc(N2CCN(c3ccc(NCc4nc5ccccc5n4C)cc3)CC2)cc1,> 80 µM (inactive)
21,Cc1ccc2c(c1)c(N=NC(N)=S)c(O)n2Cc1ccccc1,61.8 µM (inactive)
22,Cc1ccc2c(c1)C(c1ccc(N3CCOCC3)cc1)=NNC(c1cccs1)=N2,46.9 µM (inactive)

row,Compound,EC50
1,Cn1nc(C(F)(F)F)c(/C=N/OC(=O)c2ccccc2Cl)c1SCc1ccccc1Cl,22.2 µM (inactive)
2,O=C(Cn1c2ccccc2c(=O)c2cc([N+](=O)[O-])ccc21)Nc1ccccc1Cl,> 80 µM (inactive)
3,COc1ccc(C(CCNCc2ccccc2)c2ccc(F)cc2)cc1 (stereo not drawn),10.7 µM
4,Cc1nc(SCC(=O)Nc2ccc(F)cc2)c(C#N)c(C)c1CC(=O)c1ccc(Br)cc1,> 80 µM (inactive)
5,CCN=C1S/C(=C\c2cn(CC(=O)NCc3ccco3)c3ccccc23)C(=O)N1CC,> 80 µM (inactive)
6,Cc1ccc(NC(=O)c2cc(S(=O)(=O)N(C)C)ccc2N2CCCC2)cc1S(=O)(=O)N(C)C,32.1 µM (inactive)
7,COc1cc(N(C(=O)Cc2cccs2)C(C(=O)NC2CCCCC2)c2ccc(C)cc2)ccc1-n1cnnn1 (stereo not drawn),> 80 µM (inactive)
8,Cc1ccc(O)c(NC(=S)NC(=O)Cc2ccc(Cl)cc2)c1,27.1 µM (inactive)
9,Cc1ccc(-c2ccnc(-c3ccc(O)cc3)n2)cc1,63.8 µM (inactive)
10,Cc1cc(NC(=O)c2cc(-c3ccncc3)nc3ccccc23)ccc1Br,27.8 µM (inactive)
11,CCOc1ccc(Cn2c3ccc(OC)cc3c3nc4ccccc4nc32)cc1OC,> 80 µM (inactive)
12,COc1cc(NC(=O)c2cncc(-c3ccc(C#N)cc3)c2)cc(C(=O)Nc2cccc(C(F)(F)F)c2)c1,46.3 µM (inactive)
13,COc1ccccc1CCNC(=O)C1CCN(c2nnc(C)c3c(C)n(-c4ccc(C)cc4)nc23)CC1,17.8 µM
14,COc1ccc(S(=O)(=O)N2c3cc(Cl)ccc3Oc3nc4ccccc4nc32)cc1,> 80 µM (inactive)
15,COc1ccc(/C=N/Nc2cc(C)nc3ccc(Br)cc23)cc1,> 80 µM (inactive)
16,Cc1c(O)cc2c(c1O)C(=O)CC(c1ccccc1)O2 (stereo not drawn),10.8 µM
17,COc1ccc(N=Cc2c(O)c3ccccc3oc2=O)cc1,12.2 µM
18,CCCNC(=O)/C(C#N)=C1\N=C(NC(=O)c2cccs2)c2ccccc21,> 80 µM (inactive)
19,Cc1cc(NC(=O)c2cc(-c3ccccn3)nc3ccc(Br)cc23)no1,> 80 µM (inactive)
20,CSC1=NC(C)(C)C=C(/C=C/c2ccc(Cl)cc2)N1,> 80 µM (inactive)
21,O=C(Nc1ccc(Cl)cc1)Nc1ccccc1Sc1ncc([N+](=O)[O-])s1,> 80 µM (inactive)
22,COc1cc(CNCCO)cc(Cl)c1OCc1ccc(Cl)cc1Cl,> 80 µM (inactive)
